Assays:
[1] = molecular target: NHE1 (Homo sapiens, UniProt P19634); conditions: cited from earlier work; for mortality in patients experiencing myocardial infarction: clinical trials GUARDIAN and ESCAMI
[2] = Fasting blood glucose in STZ-induced diabetic mice; assay type: in vivo, mouse; conditions: 2 weeks after STZ injection (vehicle 107±8 mg/dl)
Description: After a 6 hrs fast, basal blood samples were colleted from the tip of the tail. All blood samples were immediately measured for glucose using Prestige IQ, Blood Glucose Monitoring System (Home Diagnosis, Inc, Ft. Lauderdale, Fla.).
Previously, it was reported that PKCP activation is critical in H2O2-mediated p90RSK activation. […] Since the critical role of PKCP activation in diabetes has been extensively studied, it was investigated whether p90RSK is activated in Streptozotocin (STZ)-induced hyperglycemic mice. The current study used STZ-induced diabetic mice, a known useful model for the study of diabetes (Aizawa-Abe et al., “Pathophysiological Role of Leptin in Obesity-related Hypertension,” J Clin Invest 105(9):1243-1252 (2000), which is hereby incorporated by reference in its entirety).

[3] = system: p90RSK; test: p90RSK in vitro kinase assay on heart lysates of STZ-injected mice; assay type: in vivo, mouse
Experimental: Heart powder was homogenized with 3 vol of lysis buffer and centrifuged at 14,000 g (4° C. for 30 min), and protein concentration were determined. p90RSK was immunoprecipitated through the incubation of 1000 μg protein for each sample with 3 μl of the rabbit polyclonal anti-p90RSK (Santa Cruz, Santa Cruz, Calif.) antibody for 3 hrs, the addition of 40 μl of a 1:1 slurry of protein A/Sepharose beads to the extract/antibody mixture, and then incubation for 1 hour at 4° C. This complex was washed, twice each, in cell lysis buffer described above, LiCl buffer (500 mM LiCl 100 mM Tris-HCl (pH 7.6), 0.1% Triton X-100, 1 mM DTT) and wash buffer (20 mM HEPES, pH 7.2, 2 mM EGTA, 100 μM Na3VO4, 10 mM MgCl2, 1 mM DTT, 0.1% Triton X-100). After the final wash and pelleting, S6 kinase substrate peptide was used to determine p90RSK kinase activity, as previously described (Cavet et al., “14-3-3beta is a p90 Ribosomal S6 Kinase (RSK) Isoform 1-Binding Protein That Negatively Regulates RSK Kinase Activity,” J Biol Chem 278(20):18376-18383 (2003), which is hereby incorporated by reference in its entirety). The in vitro kinase assay was performed according to manufacture's protocol using a long S6 kinase substrate peptide (Upstate) to determine radiolabeled phosphate incorporation by scintillation counter. […]

[4] = system: PRECE; test: Relative quantitative RT-PCR of PRECE mRNA in hearts of STZ-injected mice; assay type: in vivo, mouse; conditions: STZ injection, NLC mice, after 2 weeks
Experimental: Total RNA isolation, first-strand cDNA synthesis, and relative quantitative reverse transcription-polyinerase chain reaction (RT-PCR) using Ambion's Competimer technology were performed as we described (Aizawa et al., “Role of Phosphodiesterase 3 in NO/cGMP-Mediated Anti-inflammatory Effects in Vascular Smooth Muscle Cells,” Circ Res 93(5):406-413 (2003), which is hereby incorporated by reference in its entirety). Ambion's competimer technology allows one to modulate the amplification of 18S rRNA in the same linear range as the RNAs under study when amplified under the same condition. The following primers were used for PCR analysis: […]

[5] = system: isolated heart from WT-p90RSK-Tg mice and non-transgenic littermate control (NLC) mice; test: Cardiac damage: CK and LDH release from the isolated heart after ischemia/reperfusion; design: species or system mouse; conditions: captopril 50 μM pretreatment
Experimental: Creatine kinase (CK) and lactate dehydrogenase (LDH) were measured by the University of Rochester, Department of Clinical Chemistry, and reported in clinical indices (units/L) as means ±S.D.
For isolated heart from WT-p90RSK-Tg mice and non-transgenic littermate control (NLC) mice were studied using Langendorff preparation. Animals were anaesthetized with ketamine (50 mg/kg) and xylazine (2.5 mg/kg), i.p., and heparinized (5000 U/kg), i.p., to protect the heart against microthrombi. The chest was opened at the sternum and the heart, after cannulation with a 23 G phalanged stainless steel cannula, quickly removed. The heart was retrogradely perfused through the aorta in a non-circulating Langendorff apparatus with KH buffer (118 mM NaCl, 4.7 mM KCl, 1.2 mM MgSO4, 1.2 mM KH2PO4, 2.5 mM CaCl2, 25 mM NaHCO3, 0.5 mM Na-EDTA and 11 mM glucose) at a constant pressure of 80 mmHg. The buffer was saturated with 95% O2/5% CO2 (v/v, pH 7.4, 37° C.) for 50 min. A homemade water-filled balloon was inserted into the left ventricle through the left atrium and was adjusted to a left ventricular end-diastolic pressure of 5 mmHg during initial equilibration. The distal end of the catheter was connected to an ETH-200 Bridge Amplifier (CB Sciences, Inc) and PowerLab/200 (AD Instruments) data acquisition system via a pressure transducer (DELTRAN II, Utah Medical Products, Inc., Midvale, Utah). […]

[6] = molecular target: T1, NHE1 (Rattus norvegicus, UniProt P26431); test: NHE1 activity (rate of pHi recovery after acid load, BCECF-AM) in neonatal rat cardiomyocytes; assay type: cell-based; conditions: 100 μM H2O2
T1 construct: Primary cultures of cardiac myocytes were prepared from ventricles of 1 to 3-day-old neonatal Wistar rats; endogenous in cells; host or cells: primary neonatal Wistar rat ventricular cardiomyocytes, transduced with Ad.LacZ or Ad.DN-RSK; NHE1 itself not transfected
Experimental: Primary cultures of cardiac myocytes were prepared from ventricles of 1 to 3-day-old neonatal Wistar rats (Akimoto et al., “Heparin and Heparin Sulfate Block Angiotensin II-Induced Hypertrophy in Cultured Neonatal Rat Cardiomyocytes. A possible Role of Intrinsic Heparin-Like Molecules in Regulation of Cardiomyocyte Hypertrophy,” Circulation 93:810-816 (1996), which is hereby incorporated by reference in its entirety). Briefly, cells were dissociated by collagenase II (Worthington Biochem, NJ) from the ventricles and plated at a density of 1×10^5 cells/cm^2 on 25 mm collagen-coated coverslips in Dulbecco's modified Eagle's medium (DMEM) with 10% fetal bovine serum and 10% horse serum. After 6 hrs of plating the isolated cardiomyocytes, 10 μM cytosine arabinoside (Ara C) was added and the cells were cultured 24 hrs, after which the culture medium was changed to DMEM with 10 μM Ara C in 10% fetal bovine serum.
Isolated neonatal cardiomyocytes were cultured on 25 mm glass coverslips. The intracellular pH indicator BCECF-AM was incubated with DMEM without FBS for 30 min at 37° C. (Ozkan et al., “A Rapid Method for Measuring Intracellular pH Using BCECF-AM,” Biochem Biophys Acta 1572: 143-148 (2002), which is hereby incorporated by reference in its entirety). […] BCECF-AM was excited at 490 and 440 nm, and the emission fluorescence recorded at 500 nm. […]

[7] = system: H9c2 cells; test: Anoxia/reoxygenation (A/R)-induced apoptosis in transfected H9c2 cells (TUNEL); assay type: cell-based, rat
Description: Ad.LacZ (LACZ gene in an adenoviral vector) and Ad.DN-RSK were transduced into neonatal rat cardiomyocytes at varying MOI, as shown in FIG. 1. There was a concentration-dependent expression of DN-RSK (Fire 1) with expression greater than endogenous RSK at 100 MOI. WT-RSK, WT-NHE1, and NHE S703A cDNAs were inserted into pLL3.7-IRES-EGFP to make a pLL3.7-WT-RSK-IRES-EGFP expression vector. These vectors were transfected into H9c2 rat embryonic myoblasts using lipofectamine 2000 (Invitrogen, Carlsbad, Calif.). Cells were cultured for 24 hr to allow sufficient protein expression, then cells were exposed to anoxia. Cells were placed for 12 hr in the anoxia chamber (5% CO2 and 95% N2) and after 24 hr, reoxygenation was performed by changing the medium and placing cells in an air incubator (5% CO2 and 95% air). After 24 hr cell death was detected by TUNEL and by cell death detection ELISA kit (Roche Applied Sciences, Indianapolis, Ind.). Only transfected cells identified by EGFP expression were counted to compare the effects of vector alone (pLL3.7-IRES-EGFP) vs. WT-RSK, WT-NHE1 and MHE1-S703A (pLL3.7-WT-RSK-IRES-EGFP, pLL3.7-WT-NHE1-IRES-EGFP and pLL3.7-NHE1-S703A-IRES-EGFP).

Chain of NHE1 (Homo sapiens, UniProt P19634) (P19634 whole entry): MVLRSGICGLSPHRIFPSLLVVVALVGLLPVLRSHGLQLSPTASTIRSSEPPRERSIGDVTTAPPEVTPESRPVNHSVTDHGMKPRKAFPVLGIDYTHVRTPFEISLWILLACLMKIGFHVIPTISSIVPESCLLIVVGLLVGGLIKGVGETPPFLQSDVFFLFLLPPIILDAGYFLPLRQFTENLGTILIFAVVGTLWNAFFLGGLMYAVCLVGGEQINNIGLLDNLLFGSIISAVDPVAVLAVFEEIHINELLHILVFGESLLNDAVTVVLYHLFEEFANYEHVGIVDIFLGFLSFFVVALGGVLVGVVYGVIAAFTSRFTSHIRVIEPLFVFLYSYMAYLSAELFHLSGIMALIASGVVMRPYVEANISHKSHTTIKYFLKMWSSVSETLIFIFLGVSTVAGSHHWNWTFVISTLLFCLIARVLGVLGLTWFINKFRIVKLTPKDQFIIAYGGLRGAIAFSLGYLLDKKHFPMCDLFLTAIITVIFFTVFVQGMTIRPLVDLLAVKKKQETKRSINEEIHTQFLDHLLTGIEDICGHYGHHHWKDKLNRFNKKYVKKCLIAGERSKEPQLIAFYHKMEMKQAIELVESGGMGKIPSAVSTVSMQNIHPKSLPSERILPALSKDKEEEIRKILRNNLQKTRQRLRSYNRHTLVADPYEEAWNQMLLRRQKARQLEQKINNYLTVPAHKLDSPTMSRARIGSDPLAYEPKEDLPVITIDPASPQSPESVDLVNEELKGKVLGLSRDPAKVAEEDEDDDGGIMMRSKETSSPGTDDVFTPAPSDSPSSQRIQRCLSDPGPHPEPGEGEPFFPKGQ
T1 sequence (P26431 whole entry): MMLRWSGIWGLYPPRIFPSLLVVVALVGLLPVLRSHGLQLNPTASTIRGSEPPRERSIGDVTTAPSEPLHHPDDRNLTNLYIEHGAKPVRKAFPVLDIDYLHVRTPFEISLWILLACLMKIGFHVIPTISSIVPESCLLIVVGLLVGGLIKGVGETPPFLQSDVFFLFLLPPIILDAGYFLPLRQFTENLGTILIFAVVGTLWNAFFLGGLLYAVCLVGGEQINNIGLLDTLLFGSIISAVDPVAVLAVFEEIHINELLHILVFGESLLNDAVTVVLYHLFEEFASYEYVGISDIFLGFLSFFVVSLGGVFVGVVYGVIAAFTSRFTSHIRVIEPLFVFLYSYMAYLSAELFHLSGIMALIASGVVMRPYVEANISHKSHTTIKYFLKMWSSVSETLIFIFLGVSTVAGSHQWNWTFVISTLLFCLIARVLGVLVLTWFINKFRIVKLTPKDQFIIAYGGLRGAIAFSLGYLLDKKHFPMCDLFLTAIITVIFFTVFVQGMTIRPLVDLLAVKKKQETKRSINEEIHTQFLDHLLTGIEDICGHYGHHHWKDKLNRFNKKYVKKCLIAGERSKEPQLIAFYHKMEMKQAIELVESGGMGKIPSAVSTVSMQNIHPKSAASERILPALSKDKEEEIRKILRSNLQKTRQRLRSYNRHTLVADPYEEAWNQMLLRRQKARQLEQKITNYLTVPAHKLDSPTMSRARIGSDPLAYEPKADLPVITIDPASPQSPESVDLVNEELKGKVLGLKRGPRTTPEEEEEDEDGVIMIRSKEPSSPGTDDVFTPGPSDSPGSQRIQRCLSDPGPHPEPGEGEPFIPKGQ

For `CC(C)c1ccc(C(=O)NC(=N)N)cc1S(C)(=O)=O` [cariporide], the “mortality in patients experiencing myocardial infarction” value [1] is listed as “no significant reduction in mortality” and the “improvement in LV function” value ([1]; subgroup of patients who underwent coronary artery bypass grafting) is listed as 25%.
For `CN(N=O)C(=O)N[C@H]1C(O)O[C@H](CO)[C@@H](O)[C@@H]1O` (mixture of isomers) [STZ, Streptozotocin], the “fasting blood glucose level” value [2] was 224 ± 5 mg/dL, the “p90RSK activation (in vitro kinase assay)” value ([3]; DN-p90RSK-Tg mice + STZ) was 8009±797 cpm and the “p90RSK activation (in vitro kinase assay)” value ([3]; NLC mice + STZ) was 12991±1810 cpm. The “PRECE mRNA expression in heart” value [4] was “increased”.
In the case of `Cc1cc(-n2cccc2)c(S(C)(=O)=O)cc1C(=O)NC(=N)N` [eniporide], the “mortality in patients experiencing myocardial infarction” value [1] is listed as “no significant reduction in mortality”.
For `C[C@H](CS)C(=O)N1CCC[C@H]1C(=O)O` [captopril], the “release of CK and LDH” value ([5]; NLC hearts, 40 min global ischemia and 25 min reperfusion) was “no beneficial effect” and the “release of cardiac enzymes (CK and LDH)” value ([5]; WT-p90RSK-Tg hearts, 20 min ischemia and 25 min reperfusion) was “significantly reduced”.
In the case of `OO` [H2O2], the “increase of NHE1 activity” value ([6]; LacZ expressing cardiomyocytes) is reported as 3 fold and the NHE1 activity ([6]; LacZ expressing cardiomyocytes (basal 0.16±0.02)) is reported as 0.49±0.13 pHi/min.
With `CCN(c1nc(N)c(C(=O)NC(=N)N)nc1Cl)C(C)C` [EIPA] the apoptosis ([7]; A/R + NHE-WT transfected H9c2 cells + EIPA) was 39±4% and the apoptosis ([7]; EIPA 5 μM + A/R (12 hr/24 hr) + WT-RSK transfected H9c2 cells) was 29.9±5.2%.

From patent US20080104718A1, “Transgenic Non-Human Animal Models of Ischemia-Reperfusion Injury and Uses Thereof” (UNIVERSITY OF ROCHESTER, priority 2004, published 2008)
